In ChEMBL document CHEMBL3124887, “Synthesis and anti-inflammatory activity of aromatic glucosinolates” (2013):

Experiments:
Format in all cases: functional
THP-1 [1] = test: Antiinflammatory activity in human THP1 cells assessed as inhibition of LPS-induced TNF-alpha release measured as TNF-alpha level at 0.5 uM after 4hrs by ELISA relative to control
THP-1 [2] = test: Antiinflammatory activity in human THP1 cells assessed as inhibition of LPS-induced TNF-alpha release measured as TNF-alpha level at 0.1 uM after 4hrs by ELISA relative to control
THP-1 [3] = test: Antiinflammatory activity in human THP1 cells assessed as inhibition of LPS-induced TNF-alpha release measured as TNF-alpha level at 5 uM after 4hrs by ELISA relative to control
THP-1 [4] = test: Antiinflammatory activity in human THP1 cells assessed as inhibition of LPS-induced TNF-alpha release measured as TNF-alpha level at 10 uM after 4hrs by ELISA relative to control
THP-1 [5] = test: Antiinflammatory activity in human THP1 cells assessed as inhibition of LPS-induced TNF-alpha release measured as TNF-alpha level at 15 uM after 4hrs by ELISA relative to control
THP-1 [6] = test: Antiinflammatory activity in human THP1 cells assessed as inhibition of LPS-induced TNF-alpha release measured as TNF-alpha level at 1 uM after 4hrs by ELISA relative to control

O=S(=O)([O-])O/N=C(\S[C@@H]1O[C@H](CO)[C@@H](O)[C@H](O)[C@H]1O)c1ccccc1.[K+]
Activity (THP-1 [1]): 194.44 pg/mL | Activity (THP-1 [2]): 231.15 pg/mL | Activity (THP-1 [3]): 166.58 pg/mL | Activity (THP-1 [4]): 144.15 pg/mL | Activity (THP-1 [5]): 103.57 pg/mL

O=S(=O)([O-])O/N=C(/C=C/c1ccccc1)S[C@@H]1O[C@H](CO)[C@@H](O)[C@H](O)[C@H]1O.[K+]
Activity (THP-1 [4]): 122.91 pg/mL | Activity (THP-1 [5]): 79.23 pg/mL | Activity (THP-1 [6]): 149.06 pg/mL

O=S(=O)([O-])O/N=C(\S[C@@H]1O[C@H](CO)[C@@H](O)[C@H](O)[C@H]1O)c1cccc(Cl)c1Cl.[K+]
Activity (THP-1 [3]): 162 pg/mL | Activity (THP-1 [4]): 157.09 pg/mL | Activity (THP-1 [5]): 114.17 pg/mL

O=S(=O)([O-])O/N=C(\S[C@@H]1O[C@H](CO)[C@@H](O)[C@H](O)[C@H]1O)c1ccc(Br)cc1.[K+]
Activity (THP-1 [2]): 165.27 pg/mL | Activity (THP-1 [3]): 173.17 pg/mL | Activity (THP-1 [4]): 122.04 pg/mL | Activity (THP-1 [5]): 111.1 pg/mL

O=S(=O)([O-])O/N=C(/Cc1ccccc1)S[C@@H]1O[C@H](CO)[C@@H](O)[C@H](O)[C@H]1O.[K+]
Activity (THP-1 [2]): 275.48 pg/mL | Activity (THP-1 [4]): 206.65 pg/mL | Activity (THP-1 [5]): 201.87 pg/mL | Activity (THP-1 [6]): 248.4 pg/mL

O=S(=O)([O-])O/N=C(/CCc1ccccc1)S[C@@H]1O[C@H](CO)[C@@H](O)[C@H](O)[C@H]1O.[K+]
Activity (THP-1 [3]): 115.25 pg/mL | Activity (THP-1 [4]): 96.86 pg/mL | Activity (THP-1 [5]): 74.76 pg/mL | Activity (THP-1 [6]): 138.43 pg/mL

COc1ccc(/C(=N/OS(=O)(=O)[O-])S[C@@H]2O[C@H](CO)[C@@H](O)[C@H](O)[C@H]2O)cc1OC.[K+]
Activity (THP-1 [1]): 161.76 pg/mL | Activity (THP-1 [3]): 128.21 pg/mL | Activity (THP-1 [4]): 93.1 pg/mL | Activity (THP-1 [5]): 69.2 pg/mL | Activity (THP-1 [6]): 144.57 pg/mL

Oc1cc(O)c2c(c1)OC(c1ccc(O)c(O)c1)C(O)C2 (stereo unspecified) [CATECHIN]
Activity (THP-1 [1]): 303.98 pg/mL | Activity (THP-1 [3]): 282.65 pg/mL | Activity (THP-1 [5]): 255.94 pg/mL
